Laboratory results published in patent publication US20230085307A1, “PYRIDAZINONE COMPOUND AND HERBICIDE” (NISSAN CHEMICAL CORPORATION, priority 2019, published 2023).

Experiments:
[1] = tested on: blackgrass; experiment: Test Example 4: herbicidal effect by soil treatment (Table 19, symbol J); type: in vivo, blackgrass (Alopecurus myosuroides); conditions: amount of applied herbicide 320 g/ha
Summary of the method: (§1)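 Three weeks of greenhouse growth at 25° C. to 30° C. followed a uniform surface spray of water-diluted emulsion at a predetermined herbicide amount. Seeds had been sown beforehand under about 1.5 cm of sterilized diluvial soil. Grading followed criteria set out in an earlier test.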

[2] = tested on: Italian ryegrass; experiment: Test Example 5: herbicidal effect by foliage application, plastic box (Table 20, symbol K); type: in vivo, Italian ryegrass (Lolium multiflorum); conditions: foliage application, 320 g/ha, three weeks after application
Summary of the method: (§2)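 Plants sown in sterilized diluvial soil and grown 14 days in a greenhouse at 25° C to 30° C, then sprayed on the foliage with the compound's emulsion diluted in water to a predetermined herbicide amount. Injury to weeds and crops scored three weeks after application on a visual rating scale.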

[3] = tested on: barnyard grass; experiment: Test Example 4: herbicidal effect by soil treatment (Table 19, symbol H); type: in vivo, barnyard grass (Echinochloa crus-galli); conditions: amount of applied herbicide 320 g/ha
Summary of the method: as §1

[4] = tested on: windgrass; experiment: Test Example 4: herbicidal effect by soil treatment (Table 19, symbol L); type: in vivo, windgrass (Apera spica-venti); conditions: amount of applied herbicide 320 g/ha
Summary of the method: as §1

[5] = tested on: southern crabgrass; experiment: Test Example 4: herbicidal effect by soil treatment (Table 19, symbol F); type: in vivo, southern crabgrass (Digitaria ciliaris); conditions: amount of applied herbicide 320 g/ha
Summary of the method: as §1

[6] = tested on: velvetleaf; experiment: Test Example 5: herbicidal effect by foliage application, plastic box (Table 20, symbol M); type: in vivo, velvetleaf (Abutilon theophrasti); conditions: foliage application, 320 g/ha, three weeks after application
Summary of the method: as §2

[7] = tested on: oval-leafed pondweed; experiment: Test Example 1: herbicidal activity, application before weed generation under submerged conditions (Table 16, symbol C); type: in vivo, oval-leafed pondweed (Monochoria vaginalis); conditions: amount of applied herbicide 320 g/ha
Summary of the method: (§3)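 Alluvial soil was flooded to 4 cm depth, weed seeds were sown mixed and 2.5-leaf rice seedlings were transplanted. On sowing day, the compound's emulsion, diluted in water to a set dose, was applied to the water surface. Plants grew at 25–30 °C and were scored 0–5 after three weeks.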

[8] = tested on: redroot pigweed; experiment: Test Example 4: herbicidal effect by soil treatment (Table 19, symbol N); type: in vivo, redroot pigweed (Amaranthus retroflexus); conditions: amount of applied herbicide 320 g/ha
Summary of the method: as §1

[9] = tested on: wild oat; experiment: Test Example 5: herbicidal effect by foliage application, plastic box (Table 20, symbol I); type: in vivo, wild oat (Avena fatua); conditions: foliage application, 320 g/ha, three weeks after application
Summary of the method: as §2

[10] = tested on: barnyard grass; experiment: Test Example 3: herbicidal effect by foliage application, Wagner pot (Table 18, symbol H); type: in vivo, barnyard grass (Echinochloa crus-galli); conditions: amount of applied herbicide 320 g/ha
Summary of the method: (§4)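 Plants were sown in alluvial soil held under 0.1–0.5 cm standing water and grown 14 days in a greenhouse at 25–30 °C. An emulsifiable formulation, water-diluted to the set dose, was then sprayed onto the foliage, and effects were scored three weeks later using previously defined criteria.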

[11] = tested on: lambsquarters; experiment: Test Example 5: herbicidal effect by foliage application, plastic box (Table 20, symbol O); type: in vivo, lambsquarters (Chenopodium album); conditions: foliage application, 320 g/ha, three weeks after application
Summary of the method: as §2

[12] = tested on: green foxtail; experiment: Test Example 5: herbicidal effect by foliage application, plastic box (Table 20, symbol G); type: in vivo, green foxtail (Setaria viridis); conditions: foliage application, 320 g/ha, three weeks after application
Summary of the method: as §2

[13] = tested on: wild oat; experiment: Test Example 4: herbicidal effect by soil treatment (Table 19, symbol I); type: in vivo, wild oat (Avena fatua); conditions: amount of applied herbicide 320 g/ha
Summary of the method: as §1

[14] = tested on: late watergrass; experiment: Test Example 1: herbicidal activity, application before weed generation under submerged conditions (Table 16, symbol A); type: in vivo, late watergrass (Echinochloa oryzicola); conditions: amount of applied herbicide 320 g/ha
Summary of the method: as §3

[15] = tested on: rice flat sedge; experiment: Test Example 3: herbicidal effect by foliage application, Wagner pot (Table 18, symbol E); type: in vivo, rice flat sedge (Cyperus iria); conditions: amount of applied herbicide 320 g/ha
Summary of the method: as §4

[16] = tested on: persian speedwell; experiment: Test Example 5: herbicidal effect by foliage application, plastic box (Table 20, symbol R); type: in vivo, Persian speedwell (Veronica persica); conditions: foliage application, 320 g/ha, three weeks after application
Summary of the method: as §2

[17] = tested on: barnyard grass; experiment: Test Example 5: herbicidal effect by foliage application, plastic box (Table 20, symbol H); type: in vivo, barnyard grass (Echinochloa crus-galli); conditions: foliage application, 320 g/ha, three weeks after application
Summary of the method: as §2

[18] = tested on: chickweed; experiment: Test Example 4: herbicidal effect by soil treatment (Table 19, symbol P); type: in vivo, common chickweed (Stellaria media); conditions: amount of applied herbicide 320 g/ha
Summary of the method: as §1

[19] = tested on: persian speedwell; experiment: Test Example 4: herbicidal effect by soil treatment (Table 19, symbol R); type: in vivo, Persian speedwell (Veronica persica); conditions: amount of applied herbicide 320 g/ha
Summary of the method: as §1

[20] = tested on: velvetleaf; experiment: Test Example 4: herbicidal effect by soil treatment (Table 19, symbol M); type: in vivo, velvetleaf (Abutilon theophrasti); conditions: amount of applied herbicide 320 g/ha
Summary of the method: as §1

[21] = tested on: lambsquarters; experiment: Test Example 4: herbicidal effect by soil treatment (Table 19, symbol O); type: in vivo, lambsquarters (Chenopodium album); conditions: amount of applied herbicide 320 g/ha
Summary of the method: as §1

[22] = tested on: green foxtail; experiment: Test Example 4: herbicidal effect by soil treatment (Table 19, symbol G); type: in vivo, green foxtail (Setaria viridis); conditions: amount of applied herbicide 320 g/ha
Summary of the method: as §1

[23] = tested on: blackgrass; experiment: Test Example 5: herbicidal effect by foliage application, plastic box (Table 20, symbol J); type: in vivo, blackgrass (Alopecurus myosuroides); conditions: foliage application, 320 g/ha, three weeks after application
Summary of the method: as §2

[24] = tested on: Italian ryegrass; experiment: Test Example 4: herbicidal effect by soil treatment (Table 19, symbol K); type: in vivo, Italian ryegrass (Lolium multiflorum); conditions: amount of applied herbicide 320 g/ha
Summary of the method: as §1

[25] = tested on: windgrass; experiment: Test Example 5: herbicidal effect by foliage application, plastic box (Table 20, symbol L); type: in vivo, windgrass (Apera spica-venti); conditions: foliage application, 320 g/ha, three weeks after application
Summary of the method: as §2

[26] = tested on: Japanese bulrush; experiment: Test Example 1: herbicidal activity, application before weed generation under submerged conditions (Table 16, symbol B); type: in vivo, Japanese bulrush (Schoenoplectus juncoides); conditions: amount of applied herbicide 320 g/ha
Summary of the method: as §3

[27] = tested on: Chinese sprangletop; experiment: Test Example 3: herbicidal effect by foliage application, Wagner pot (Table 18, symbol D); type: in vivo, chinese sprangletop (Leptochloa chinensis); conditions: amount of applied herbicide 320 g/ha
Summary of the method: as §4

[28] = tested on: southern crabgrass; experiment: Test Example 5: herbicidal effect by foliage application, plastic box (Table 20, symbol F); type: in vivo, southern crabgrass (Digitaria ciliaris); conditions: foliage application, 320 g/ha, three weeks after application
Summary of the method: as §2

[29] = tested on: false cleavers; experiment: Test Example 4: herbicidal effect by soil treatment (Table 19, symbol Q); type: in vivo, false cleavers (Galium spurium); conditions: amount of applied herbicide 320 g/ha
Summary of the method: as §1

In the case of `Cc1nn(C)c(=O)c(-c2c(-c3ccc(OCC(F)(F)F)cc3)oc3ccc(F)cc23)c1O` [9-035], the “J: blackgrass, herbicidal effect grade” value [1] is reported as 5 (Herbicidal rate of 90% or more (almost completely withered)), the “herbicidal effect on Italian ryegrass (K)” value [2] is reported as 5 (Herbicidal rate of 90% or more (almost completely withered)) and the “H: barnyard grass, herbicidal effect grade” value [3] is reported as 5 (Herbicidal rate of 90% or more (almost completely withered)). For the same molecule, the “L: windgrass, herbicidal effect grade” value [4] was 5 (Herbicidal rate of 90% or more (almost completely withered)), the “F: southern crabgrass, herbicidal effect grade” value [5] was 5 (Herbicidal rate of 90% or more (almost completely withered)) and the “herbicidal effect on velvetleaf (M)” value [6] was 5 (Herbicidal rate of 90% or more (almost completely withered)). The “Herbicidal effect, C: oval-leafed pondweed” value [7] was 0 (Herbicidal rate of 5% or less (almost no effect)), the “N: redroot pigweed, herbicidal effect grade” value [8] was 5 (Herbicidal rate of 90% or more (almost completely withered)) and the “herbicidal effect on wild oat (I)” value [9] was 5 (Herbicidal rate of 90% or more (almost completely withered)). For the same molecule, the “Herbicidal effect on H (barnyard grass), foliage application” value [10] was 5 (Herbicidal rate of 90% or more (almost completely withered)), the “herbicidal effect on lambsquarters (O)” value [11] was 4 (Herbicidal rate of 70% or more and less than 90%) and the “herbicidal effect on green foxtail (G)” value [12] was 5 (Herbicidal rate of 90% or more (almost completely withered)). For the same molecule, the “I: wild oat, herbicidal effect grade” value [13] was 2 (Herbicidal rate of 20% or more and less than 40%), the “Herbicidal effect, A: late watergrass” value [14] was 2 (Herbicidal rate of 20% or more and less than 40%) and the “Herbicidal effect on E (rice flat sedge), foliage application” value [15] was 5 (Herbicidal rate of 90% or more (almost completely withered)). The “herbicidal effect on persian speedwell (R)” value [16] was 5 (Herbicidal rate of 90% or more (almost completely withered)), the “herbicidal effect on barnyard grass (H)” value [17] was 5 (Herbicidal rate of 90% or more (almost completely withered)) and the “P: chickweed, herbicidal effect grade” value [18] was 5 (Herbicidal rate of 90% or more (almost completely withered)). For the same molecule, the “R: persian speedwell, herbicidal effect grade” value [19] was 5 (Herbicidal rate of 90% or more (almost completely withered)), the “M: velvetleaf, herbicidal effect grade” value [20] was 4 (Herbicidal rate of 70% or more and less than 90%) and the “O: lambsquarters, herbicidal effect grade” value [21] was 5 (Herbicidal rate of 90% or more (almost completely withered)). For the same molecule, the “G: green foxtail, herbicidal effect grade” value [22] was 5 (Herbicidal rate of 90% or more (almost completely withered)), the “herbicidal effect on blackgrass (J)” value [23] was 5 (Herbicidal rate of 90% or more (almost completely withered)) and the “K: Italian ryegrass, herbicidal effect grade” value [24] was 5 (Herbicidal rate of 90% or more (almost completely withered)). The “herbicidal effect on windgrass (L)” value [25] was 5 (Herbicidal rate of 90% or more (almost completely withered)), the “Herbicidal effect, B: Japanese bulrush” value [26] was 0 (Herbicidal rate of 5% or less (almost no effect)) and the “Herbicidal effect on D (Chinese sprangletop), foliage application” value [27] was 3 (Herbicidal rate of 40% or more and less than 70%). The “herbicidal effect on southern crabgrass (F)” value [28] was 5 (Herbicidal rate of 90% or more (almost completely withered)) and the “Q: false cleavers, herbicidal effect grade” value [29] was 3 (Herbicidal rate of 40% or more and less than 70%).
